Measured values reported in publication PMC3539793 (Neuroscience letters, 2012).
Non-standard residues stand in square brackets, D forms with d. Residues, ends and D or L forms follow the SMILES beside them. *: point of attachment. X1 = OC[C@H]1O[C@@H](O[C@H]2[C@H](O)[C@@H](O)[C@H](*)O[C@@H]2CO)[C@H](O)[C@@H](O)[C@H]1O

Assays:
[1] = tested on: thermal nociception; conditions: rhesus monkeys; i.m.; cited from earlier work
[2] = tested on: allodynia; conditions: rhesus monkeys; i.m.; cited from earlier work
[3] = tested on: μ-opioid receptor; conditions: cited from earlier work
[4] = tested on: apomorphine-induced overshoot in movement; conditions: reserpine-treated akinesia rats; cited from earlier work
[5] = rhesus monkeys; i.m. injection; cited from earlier work
[6] = format: in vivo, rat
[7] = tested on: δ-opioid receptor; conditions: cited from earlier work

CC(C)C[C@H](NC(=O)[C@H](Cc1ccccc1)NC(=O)CNC(=O)[C@H](NC(=O)[C@@H](N)Cc1ccc(O)cc1)[C@H](C)O)C(=O)N[C@@H](CO[C@@H]1O[C@H](CO)[C@@H](O[C@@H]2O[C@H](CO)[C@H](O)[C@H](O)[C@H]2O)[C@H](O)[C@H]1O)C(N)=O [MMP-2200, Tyr-D-Thr-Gly-Phe-Leu-Ser(β-O-Glc)-CONH2] (H-Y[dT]GFLS(X1)-NH2; N-terminus assumed)
effect in tail flick model of thermal nociception [1]: not very effective
anti-allodynic effects [2]: comparable to morphine
affinity for μ-opioid receptor [3]: nanomolar
apomorphine-induced overshoot in movement [4]: reversed
CNS distribution [5]: very limited
MMP-2200 concentration in DLS reached within 10 minutes ([6]; rat, systemic administration (i.p.), highlights): nM range
effect of MMP-2200 injection on endogenous leu-ENK level in DLS ([6]; rats, MMP-2200 10 mg/kg i.p., 80 min, repeated measures ANOVA p = 0.8, n = 5): unchanged
affinity for δ-opioid receptor [7]: nanomolar
